In US7700593B2, “Imidazo- and triazolo-pyridine compounds and methods of use thereof” (Amgen Inc., priority 2006, dated 2010):

How the values were obtained:
[1] = test system: THP1 cells; test: Lipopolysaccharide-activated THP1 cell TNF production assay; type: cell-based, human; settings: Homo sapiens, THP-1; LPS-induced TNF-α production in THP1 cells
Method in brief: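 THP1 cells at 1E6/mL were stimulated with LPS (1 μg/mL prepared stock) alongside 3-fold serially diluted compound for 3 h at 37 °C. Secreted TNF-α was quantified by electrochemiluminescence sandwich immunoassay. Percent of DMSO control was fitted to a 4-parameter logistic equation.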

[2] = test system: monocytes; test: Lipopolysaccharide-activated monocyte TNF production assay (LPS induced TNF release); type: cell-based, human; settings: Homo sapiens, Monocyte; LPS induced TNF release from monocytes; read-out: LPS induced TNFa
Method in brief: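 Adherent monocytes from human PBMCs were pretreated with compound 60 min, then stimulated with E. coli LPS (30 ng/mL stock added) for 4 h at 37 °C. Supernatant TNF-α measured by sandwich ELISA; concentration giving 50% TNF reduction derived by polynomial fit.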

[3] = target: p38α (Homo sapiens, UniProt Q16539); test: p38 in-vitro HTRF enzyme assay; type: biochemical; settings: IC50 value ranges
Method in brief: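 Activated recombinant human p38α with ATP and 100 nM GST-ATF2-Avitag, 1 h at RT in Tris pH 7.5/MgCl2 buffer; compound 10-point 3-fold series from about 1 μM final. HTRF 665/620 nm ratio; IC50 from 4-parameter fit, Ki via Cheng-Prusoff with experimental ATP Km.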

Chain of p38α (Q16539 whole entry): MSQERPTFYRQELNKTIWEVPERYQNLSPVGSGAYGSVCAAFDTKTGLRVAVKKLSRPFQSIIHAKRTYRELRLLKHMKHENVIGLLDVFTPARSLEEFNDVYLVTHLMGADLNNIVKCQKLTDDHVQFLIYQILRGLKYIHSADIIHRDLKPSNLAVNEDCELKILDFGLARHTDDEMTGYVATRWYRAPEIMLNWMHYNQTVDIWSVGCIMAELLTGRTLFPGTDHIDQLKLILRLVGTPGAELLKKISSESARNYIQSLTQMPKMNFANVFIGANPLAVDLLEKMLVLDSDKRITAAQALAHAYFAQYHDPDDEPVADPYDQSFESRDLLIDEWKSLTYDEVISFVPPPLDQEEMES

| IC50 [1] | IC50 [2] | IC50 [3] | Compound |
| --- | --- | --- | --- |
| 250 to 1000 nM | 250 to 1000 nM | 100 to 250 nM | Cc1ccc(C(=O)NC2CC2)cc1-c1ccn2c(C(F)(F)F)nnc2c1 [Example 102, N-cyclopropyl-4-methyl-3-(3-(trifluoromethyl)[1,2,4]triazolo[4,3-a]pyridin-7-yl)benzamide] |
| 25 to 100 nM | 100 to 250 nM | < 25 nM | CCc1ccccc1-c1nnc2cc(-c3cc(C(=O)NC4CC4)ccc3C)ccn12 [Example 103, N-cyclopropyl-3-(3-(2-ethylphenyl)[1,2,4]triazolo[4,3-a]pyridin-7-yl)-4-methylbenzamide] |
| 25 to 100 nM | 100 to 250 nM | < 25 nM | Cc1ccc(C(=O)NC2CC2)cc1-c1ccn2c(-c3ccccc3C(F)(F)F)nnc2c1 [Example 104, N-cyclopropyl-4-methyl-3-(3-(2-(trifluoromethyl)phenyl)[1,2,4]triazolo[4,3-a]pyridin-7-yl)benzamide] |
| 25 to 100 nM | 25 to 100 nM | < 25 nM | Cc1ccc(C(=O)NC2CC2)cc1-c1ccn2c(C(C)(C)C)nnc2c1 [Example 105, N-cyclopropyl-3-(3-(1,1-dimethylethyl)[1,2,4]triazolo[4,3-a]pyridin-7-yl)-4-methylbenzamide] |
| < 25 nM | < 25 nM | < 25 nM | Cc1ccc(C(=O)Nc2ccon2)cc1-c1ccn2c(-c3c(F)cccc3F)nnc2c1 [Example 106, 3-(3-(2,6-difluorophenyl)[1,2,4]triazolo[4,3-a]pyridin-7-yl)-N-3-isoxazolyl-4-methylbenzamide] |
